According to patent US6982142B2, “Methods for screening therapeutically effective agents” (John Wayne Cancer Institute, priority 1997, dated 2006):
Counter-ions that a name gives are not always drawn.

How the values were obtained:
KB-V-1 cells [1] = assay: Cytotoxicity in vinblastine resistant epidermoid carcinoma cells (estimated, not measured); format: cell-based, human; details: PSC 833 5.0 μM, 24 h
Protocol: To determine whether the influence of PSC 833 on ceramide metabolism was restricted to certain cell types, a vinblastine resistant epidermoid carcinoma, KB-V-1, was tested. In KB-V-1 cells exposed to 5.0 μM PSC 833 for 24 h, cellular levels of tritiated ceramide ([^3H]palmitic acid labeling) increased 8.7-fold over untreated cells. This is 4-fold higher than the ceramide increase elicited by PSC 833 in MCF-7-AdrR cells (FIG. 7). The increase in ceramide in KB-V-1 cells was accompanied by cytotoxicity, which while not measured was estimated at 80% cell death. Additionally, the PSC 833-induced increase in [^3H]ceramide was not accompanied by decreases in [^3H]sphingomyelin, but rather a slight increase in radiolabeled sphingomyelin (33% over the control).

KB-V-1 cells [2] = assay: Ceramide and sphingomyelin metabolism ([3H]palmitic acid labeling) in vinblastine resistant epidermoid carcinoma cells; format: cell-based, human; details: PSC 833 5.0 μM
Protocol: (§1) Cells. Experiments were conducted using the human MDR breast cancer cell line, MCF-7 AdrR (adriamycin resistant) provided by Drs. Kenneth H. Cowan and Merrill E. Goldsmith, National Cancer Institute. Cells were grown in RPMI-1640 medium containing 10% FBS (fetal bovine serum) and antibiotics as previously described (Lavie, 1997) and cultures were maintained in a humidified 6.5% CO2 atmosphere incubator. Trypsin (0.05%) and EDTA (0.5 mM) were used for subculture. Plastic tissue cultureware, was from Costar (96-well plates) and Corning (6-well plates, 6-cm dishes, T-75 flasks). Limited experiments were conducted using the human MDR epidermoid carcinoma cell line, KBV-1, provided by Dr. Michael M. Gottesman, National Cancer Institute. Cells were maintained as described (Lavie, 1996). Vinblastine was eliminated from the culture medium during the experiments.
Cell Radiolabeling and Lipid/Glycolipid Analysis. To follow lipid metabolism, cells were grown in the presence of tritiated ceramide precursors, L-[^3H]serine (20 Ci/mmol) (American Radiolabeled Chemicals, Inc., St. Louis), and [9, 10-^3H]palmitic acid (50 Ci/mmol) (DuPont NEN). […] After radiolabeling, 0.1 ml aliquots of medium were removed and analyzed by LSC (Lavie, 1997), in order to determine cellular uptake of the tritiated compounds. […]
Radioactivity in glucosylceramide was analyzed by TLC resolution of total lipids (Silica Gel G) using a solvent system containing chloroform/methanol/ammonium hydroxide (80:20:2, v/v/v). Migration of glucosylceramide on TLC was compared with that of commercial standard (glucocerebrosides, Gaucher's spleen, Matreya, Inc., Pleasant Gap, Pa.), and lipid spots, after iodine vapor visualization, were scraped for tritium quantitation by LSC (Lavie, 1997; Lavie, 1996). […] After iodine visualization of lipids, areas of the chromatogram corresponding to ceramide and sphingomyelin were scraped into minivials containing 0.5 ml water followed by 4.5 ml EcoLume (ICN, Costa Mesa, Calif.), and samples were analyzed for tritium by liquid scintillation spectrometry. […]

MCF-7-AdrR cells [3] = tested on: MCF-7-AdrR cells
MCF-7-AdrR cells [4] = assay: Cell radiolabeling and TLC/LSC analysis of ceramide, glucosylceramide and sphingomyelin in MDR breast cancer cells; format: cell-based, human; details: for ceramide level, increase over control: adriamycin 2.5, PSC 833 5.0 μM, tamoxifen 5.0 μM alone or combined, 24 h, [3H]palmitic acid
Protocol: as §1
Cell Radiolabeling and Lipid/Glycolipid Analysis. To follow lipid metabolism, cells were grown in the presence of tritiated ceramide precursors, L-[^3H]serine (20 Ci/mmol) (American Radiolabeled Chemicals, Inc., St. Louis), and [9, 10-^3H]palmitic acid (50 Ci/mmol) (DuPont NEN). Labeling media were prepared by adding microliter amounts of tritiated compounds (supplied in ethanol or sterile water) to medium containing only 5% FBS. After radiolabeling, 0.1 ml aliquots of medium were removed and analyzed by LSC (Lavie, 1997), in order to determine cellular uptake of the tritiated compounds. Cell monolayers were then rinsed twice with cold phosphate-buffered saline. Ice cold methanol containing 2% acetic acid was added, and cells were scraped free of the substratum (plastic scraper) for lipid extraction using chloroform and water in 1-dram glass vials as described (Lavie, 1997; Lavie, 1996; Bligh and Dyer, 1959). After centrifugation, the resulting organic lower phase of the biphasic extraction was withdrawn, transferred to a glass vial, and evaporated to dryness under a stream of nitrogen.
Radioactivity in glucosylceramide was analyzed by TLC resolution of total lipids (Silica Gel G) using a solvent system containing chloroform/methanol/ammonium hydroxide (80:20:2, v/v/v). Migration of glucosylceramide on TLC was compared with that of commercial standard (glucocerebrosides, Gaucher's spleen, Matreya, Inc., Pleasant Gap, Pa.), and lipid spots, after iodine vapor visualization, were scraped for tritium quantitation by LSC (Lavie, 1997; Lavie, 1996). […] Ceramide and sphingomyelin commercial standards (brain-derived) were from Avanti Polar Lipids, Alabaster, Ala. After iodine visualization of lipids, areas of the chromatogram corresponding to ceramide and sphingomyelin were scraped into minivials containing 0.5 ml water followed by 4.5 ml EcoLume (ICN, Costa Mesa, Calif.), and samples were analyzed for tritium by liquid scintillation spectrometry. Alternative analysis of ceramide consisted of subjecting an aliquot of the total cell lipid extract to mild alkaline hydrolysis (0.1 N KOH in methanol, 1 h at 37° C.) followed by re-extraction (Lavie, 1997). […] The same can also be done without tritium by simply applying 100-200 μg total cell lipid to TLC plates and developing them in the appropriate solvent, then spraying them with 30% H2SO4, charring the plate in an oven at 180° C. for 20 min, and measuring lipid mass by densitometry.

MCF-7-wt cells = assay: Cytotoxicity assay (Promega) in chemosensitive wild-type breast cancer cells; format: cell-based, human; details: PSC 833 10 μM, four days
MCF-7 cells [5] = assay: cells; format: cell-based; details: Homo sapiens, MCF7, 96 h, read-out: EC50 (cytotoxicity)
Protocol: Cytotoxicity Assay. The assay was performed as previously described (Lavie, 1997). […] Cultures were incubated at 37° C. for 24 hr before addition of drug. Drugs were added in FBS-free medium (0.1 ml), and cells were cultured at 37° C. for the indicated periods. Drug cytotoxicity was determined using the Promega 96 Aqueous cell proliferation assay kit. Absorbance at 490 nm was recorded using an ELISA reader (Molecular Devices, San Diego, Calif.).
Adriamycin was used to assess the influence of GCS transfection on cellular response to anthracyclines. After pretreatment with doxycycline for two days, MCF-7/GCS cells were incubated with increasing concentrations of adriamycin for four days. […] It was observed that MCF-7/GCS cells were resistant to ceramide toxicity as well. […] However, the EC50 in the TC group was nearly identical with that of MCF-7 cells, there being no statistical difference between the two groups (FIG. 14C).

MCF-7-AdrR cells [6] = assay: cells; details: Homo sapiens, 72 h, read-out: growth inhibition
MCF-7 cells [7] = assay: Analysis of ceramide and glucosylceramide ([3H]palmitic acid, TLC) in parental cells; format: cell-based, human; details: adriamycin
Protocol: (§2) Analysis of Ceramide and Glucosylceramide. Analyses were performed as previously described (Lavie, 1997). Cellular lipids were radiolabeled by incubating cells with [^3H]palmitic acid (2.5 μCi/ml culture medium) for 24 hr. After removal of medium, cells were rinsed twice with PBS (pH 7.4), and lipids were extracted (Lavie, 1997). After nitrogen evaporation of solvents, total lipids were resuspended in 100 μl of chloroform /methanol (1:1, v/v), and aliquots were applied to TLC plates. Ceramide was resolved using solvent system I, which contained chloroform/acetic acid (90:10, v/v). […] Commercial lipid standards were co-chromatographed. After development, lipids were visualized by iodine vapor staining, and areas of interest were scraped into 0.5 ml water. EcoLume counting fluid (4.5 ml) was added, the samples were mixed, and radioactivity was quantitated by liquid scintillation spectrometry.
(§3) To further define the mechanism of drug resistance in MCF-7/GCS cells, cells were challenged with adriamycin and the metabolism of ceramide was evaluated (FIGS. 16A-16B). […] After 24 and 48 hr with adriamycin, GC levels in the GCS-transfected cells increased 1.4- and 2.1-fold, respectively.

MCF-7 wild-type cells [8] = assay: Ceramide and sphingomyelin formation ([3H]palmitic acid, TLC) in wild-type breast cancer cells; format: cell-based, human; details: doxorubicin 1.7 μM
Protocol: (§4) The effect of anthracyclines such as doxorubicin on ceramide formation is illustrated in FIG. 10A. Cells were seeded in 6-well plates (80,000 cells/well) in 2.0 ml medium containing 5% FBS. After 2 days of growth, cells were given doxorubicin (1.7 μM) and [^3H]palmitic acid (2.0 μCi/well) for 72 hr. Total cell lipids were extracted (Bligh and Dyer, 1959) and analyzed by applying 150,000 cpm (for ceramide analysis) and 50,000 cpm (for sphingomyelin analysis) from each sample to the origin of a Silica Gel G TLC plate and resolving [^3H]ceramide and [^3H]sphingomyelin as described in the Methods section. […] FIG. 10A illustrates that exposure of wild-type human breast cancer cells to doxorubicin (1.7 μM) caused, after 72 hours, a 6-fold increase in ceramide. […] Control and doxorubicin treated (1.7 μM) cells were grown in 10 cm culture dishes for 72 hr. Cells were harvested by trypsin-EDTA, centrifuged then incubated with digestion buffer (100 mM NaCl, 25 mM EDTA, 10 mM Tris-HCI, 0.5% SDS, 0.3 mg/ml Proteinase K, pH 8.0) at 45° C. for 18 hrs. DNA was extracted with phenol/chloroform/isoamyl alcohol (25:24:1, v/v/v) and precipitated in 1/3 volume 7.5 M ammonium acetate and 2 volume2 100% ethanol at −20° C. overnight. […] Re-extracted DNA (15 μg) was analyzed by electrophoresis on a 2% agarose gel in TAE buffer (40 mM Tris-acetate, 1.0 mM EDTA, pH 8.3). […]

MCF-7 wild-type cells [9] = assay: Apoptosis by oligonucleosomal DNA fragmentation (gel electrophoresis) in wild-type cells; format: cell-based, human; details: doxorubicin 1.7 μM, 72 hr
Protocol: as §4

MCF-7/GCS cells = assay: Analysis of ceramide and glucosylceramide ([3H]palmitic acid, TLC) in GCS-transfected cells; format: cell-based, human; details: adriamycin
Protocol: as §2, §3

[10] = increasing concentration, 60 min then [3H]palmitic acid for 23 h

C/C=C/C[C@@H](C)C(=O)[C@H]1C(=O)N[C@@H](C(C)C)C(=O)N(C)CC(=O)N(C)[C@@H](CC(C)C)C(=O)N[C@@H](C(C)C)C(=O)N(C)[C@@H](CC(C)C)C(=O)N[C@@H](C)C(=O)N[C@H](C)C(=O)N(C)[C@@H](CC(C)C)C(=O)N(C)[C@@H](CC(C)C)C(=O)N(C)[C@@H](C(C)C)C(=O)N1C [PSC 833, ([3′-Keto-Bmt1]-Val2)-cyclosporine]
cell death (not measured, estimated) (KB-V-1 cells [1]): ~80%
ceramide increase in KB-V-1 relative to increase in MCF-7-AdrR cells (KB-V-1 cells [2]): 4 fold
radiolabeled sphingomyelin, increase over the control (KB-V-1 cells [2]; 24 h): 33%
tritiated ceramide level, increase over untreated cells (KB-V-1 cells [2]; 24 h): 8.7 fold
cell kill (MCF-7-AdrR cells [3]; PSC 833 0.5 μM, 5-days): 10%
reduction in cell survival (MCF-7-AdrR cells [3]; PSC 833 10 μM, four days): 35%
cell viability (MCF-7-AdrR cells [3]; adriamycin 2.5 μM, PSC 833 5.0, tamoxifen 5.0 μM alone or combined, 3-days): without influence
concentration at which activation of glucosylceramide formation was apparent (MCF-7-AdrR cells [4]; 60 min then [3H]palmitic acid for 23 h): 0.1 µM
glucosylceramide level (TLC autoradiography) (MCF-7-AdrR cells [4]; PSC 833 2.5 μM, overnight, [3H]serine): increased markedly
sphingomyelin, % of control (MCF-7-AdrR cells [4]; PSC 833 5.0 μM, 2 h): 150 % of control
time at which activation of cellular ceramide formation was discernible (MCF-7-AdrR cells [4]; PSC 833 5.0 μM, exposure 15 min-4 h): 30 min
ceramide level, increase over control (MCF-7-AdrR cells [4]): 4.8 fold
cellular ceramide formation, dose-response (MCF-7-AdrR cells [4]; [10]): elicited an increase in cellular ceramide formation
glucosylceramide formation, dose-response (MCF-7-AdrR cells [4]; [10]): resulted in glucosylceramide synthesis
reduction in cell survival (MCF-7-wt cells): 80%

COc1cccc2c1C(=O)c1c(O)c3c(c(O)c1C2=O)C[C@@](O)(C(=O)CO)C[C@@H]3O[C@H]1C[C@H](N)[C@H](O)[C@H](C)O1 [adriamycin, doxorubicin hydrochloride]
EC50 (MCF-7 cells [5]): 370 ± 10 nM
inhibition at 2.5 µM (MCF-7-AdrR cells [6]): 23%
GC levels (MCF-7 cells [7]; 24 and 48 hr): little impact
ceramide level increase (MCF-7 cells [7]; 24 hr): 3.4 fold
ceramide level increase (MCF-7 cells [7]; 48 hr): 3 fold
cell survival (MCF-7-AdrR cells [3]; adriamycin 0.2 μM alone, 5-days): 90%
cell survival, % of control (MCF-7-AdrR cells [3]; adriamycin 0.1-1.0 μM, 5-days): 80-95 % of control
ceramide increase (MCF-7 wild-type cells [8]; 72 hours): 6 fold
sphingomyelin production (MCF-7 wild-type cells [8]; 72 hr): increased only slightly
ceramide level, increase over control (MCF-7-AdrR cells [4]): not influenced
apoptosis (DNA laddering) (MCF-7 wild-type cells [9]): gave rise to apoptosis
GC level increase (MCF-7/GCS cells; 24 hr): 1.4 fold
ceramide level increase (MCF-7/GCS cells; 24 hr): 1.4 fold
GC level increase (MCF-7/GCS cells; 48 hr): 2.1 fold
ceramide level increase (MCF-7/GCS cells; 48 hr): 1.2 fold
